This passage reports GI50 and TGI results from PubChem BioAssay (NCI).

Assay in all cases: growth of human tumour cells (NCI), 48 h
Assay [1] concerns CAKI-1 renal.
Assay [2] deals with OVCAR-8 ovarian.
Assay [3] has as its system KM12 colon.
The test system of assay [4] is SK-MEL-5 melanoma.
Assay [5] deals with SF-539 CNS.
Assay [6] deals with ACHN renal.
Assay [7] has as its system RPMI-8226 leukemia.
For assay [8], the system named is NCI/ADR-RES ovarian.

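Compound exposure: 48 hours, 5 concentrations, 96-well plates. GI50: concentration for 50% inhibition of growth. At the TGI there is no net growth.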

For the compound `O=C(Nc1ccc(Oc2cccc(F)c2)c(Cl)c1)c1cnccn1`, the GI50 in assay [1] was 2130 nM; in assay [2], 2510 nM; in assay [3] it was 357 nM; in assay [4] it was 1790 nM; in assay [5], 1350 nM; in assay [6], 3300 nM. In addition, the GI50 in assay [7] was 1790 nM. For the same compound, the TGI in assay [1], in assay [2], in assay [3], in assay [4], in assay [5] and in assay [6] was above 50 µM each time. Further, the TGI in assay [7] is above 50 µM.

`CCOC(=O)c1cc2c(n1Cc1cc(OC)c(OC)c(OC)c1)-c1oncc1CCC2`: the GI50 in assay [1] is 105 nM; in assay [2], 332 nM; in assay [3], 88.4 nM; in assay [4], 207 nM; in assay [8], 0.0614 µM; in assay [6], 296 nM. For the same compound, the GI50 in assay [7] is 420 nM. The TGI in assay [1] is above 27.8 µM; in assay [2], above 49.7 µM; in assay [3] it was above 55.4 µM; in assay [4], 7.01 µM; in assay [8] it was above 100 µM; in assay [6], above 59.9 µM. This compound showed a TGI in assay [7] of 21.9 µM.

Regarding `CCc1ccc2c(c1)C(=O)c1c-2n(CCCN=[N+]=[N-])c(=O)c2cc(OC)c(OC)cc12`, the GI50 in assay [2] is above 100000 nM; in assay [3] it was above 100000 nM; in assay [4], above 100000 nM; in assay [8], above 100 µM; in assay [5], 57200 nM; in assay [6] it was 42200 nM. Besides, in assay [7], the GI50 is above 100000 nM. Moreover, the TGI in assay [2], in assay [3], in assay [4], in assay [8], in assay [5] and in assay [6] was above 100 µM in each case. Moreover, the TGI in assay [7] was above 100 µM.

Consider `CN(C)C(=O)c1cnc2oc3ccc(O)cc3c2c1-c1ccccc1`, for which the GI50 in assay [1] was above 25000 nM; in assay [2], above 25000 nM; in assay [3] it was above 25000 nM; in assay [4] it was 6750 nM; in assay [8] it was above 25 µM; in assay [6] it was above 25000 nM. Moreover, the GI50 in assay [7] is above 25000 nM. The TGI in assay [1], in assay [2], in assay [3], in assay [4], in assay [8] and in assay [6] was above 25 µM each time. The same compound had a TGI in assay [7] above 25 µM.

`C=C1CC[C@@H]2[C@](C)(COC(C)=O)[C@H](OC(C)=O)CC[C@@]2(C)[C@@H]1CC(Nc1ccc(S(=O)(=O)Nc2ccc(Cl)nn2)cc1)C1=CCOC1=O` (some centres not stated): the GI50 in assay [1] is 2280 nM; in assay [3] it was 1700 nM; in assay [4] it was 1600 nM; in assay [8], 1.87 µM; in assay [5], 1230 nM; in assay [6] it was 1680 nM. Besides, the GI50 in assay [7] is 445 nM. Moreover, the TGI in assay [1] was 10 µM; in assay [3] it was 3.49 µM; in assay [4], 3.13 µM; in assay [8], 6.2 µM; in assay [5] it was 2.63 µM; in assay [6], 3.32 µM. Also, the TGI in assay [7] turned out to be 3.04 µM.

With `Cc1[nH]c2ccc(F)cc2c1-c1nc2c3cccnc3c3ncccc3c2[nH]1`, the GI50 in assay [1] was 358 nM; in assay [2], 345 nM; in assay [3], 391 nM; in assay [4] it was 190 nM; in assay [6] it was 327 nM; in assay [7], 3430 nM. The TGI in assay [1] was above 100 µM; in assay [2], above 100 µM; in assay [3], above 100 µM; in assay [4] it was 0.516 µM; in assay [6] it was above 100 µM; in assay [7], above 100 µM.

In the case of `COc1ccc(C(=O)/C=C/c2cccc(Nc3ccnc4cc(Cl)ccc34)c2)cc1`, the figures for the GI50 in assay [3], in assay [5] and in assay [7] were 2450 nM, 1700 nM and 572 nM, respectively. The figures for the TGI in assay [3], in assay [5] and in assay [7] were above 100 µM, 4.3 µM and 13.8 µM, respectively.

For `Cc1nn(C)c(COc2ccc(N3CCN(S(=O)(=O)N(C)C)CC3)cc2)c1-c1cccc2c(CCCOc3cccc4ccccc34)c(C(=O)O)n(CCN3CCOCC3)c12`, the GI50 was 11400 nM in assay [1]; 3510 nM in assay [2]; 3500 nM in assay [3]; 2440 nM in assay [4]; 36.5 µM in assay [8]; 2440 nM in assay [5]. Moreover, in assay [6], the GI50 is 4030 nM. Further, the TGI was 23.9 µM in assay [1]; 14.7 µM in assay [2]; 13 µM in assay [3]; 5.96 µM in assay [4]; above 100 µM in assay [8]; 6.17 µM in assay [5]. In assay [6], this compound yielded a TGI of 15.7 µM.

Take `O=[N+]([O-])c1cc(Cl)cnc1Br`: the TGI was found to be 5.02 µM in assay [2]; 19 µM in assay [3]; 10.1 µM in assay [4]; 6.72 µM in assay [8]; 4.5 µM in assay [5]; 4.66 µM in assay [6]. In addition, in assay [7], the TGI amounted to 6.79 µM.

For `Cc1ccc(-c2csc(NC(=O)N3CCN(c4cc5c(cc4F)c(=O)c(C(=O)O)cn5C4CC4)CC3)n2)cc1`, the GI50 in assay [2] was 421 nM; in assay [3] it was 458 nM; in assay [4] it was 889 nM; in assay [8] it was 4.65 µM; in assay [5], 418 nM; in assay [6], 307 nM. Moreover, the GI50 in assay [7] was 378 nM. The TGI in assay [2] is 7.74 µM; in assay [3] it was above 100 µM; in assay [4], 2.51 µM; in assay [8] it was above 100 µM; in assay [5], above 100 µM; in assay [6] it was 4.22 µM. In assay [7], this compound came in with a TGI of 1.9 µM.

As to `NCCN.O=C([O-])CN1CCOCC1.[OH-].[Pt+4]`, the GI50 in assay [1] is above 100000 nM; in assay [2], above 100000 nM; in assay [3], above 100000 nM; in assay [4], above 100000 nM; in assay [8] it was above 100 µM; in assay [5], above 100000 nM. Moreover, the GI50 in assay [6] is above 100000 nM. The TGI in assay [1], in assay [2], in assay [3], in assay [4], in assay [8] and in assay [5] was above 100 µM each time. For the same compound, the TGI in assay [6] is above 100 µM.
